Measurements published in patent US4684637A, “Method of decreasing rate of heme metabolism” (The Rockefeller University, priority 1985, dated 1987).
Several values for one entry are separate records, joined by “and”; a condition that tells them apart may be missing. Equal entries are not always repeated.

Tests used:
Type in all cases: in vivo, rat
heme oxygenase [1] = assay: heme oxygenase activity in liver, kidney and spleen of neonatal rats treated with Cr-protoporphyrin
Procedure: (§1) The treated animals and the controls were assayed for heme oxygenase activity and bilirubin concentration. Since heme oxygenase is an essential component in the catabolism of heme, an increase in heme oxygenase activity is indicative of an increase in the rate of heme catabolism. Heme oxygenase was assyed as described by Maines and Kappas in J. Biol. Chem., 253, 2321-2326 (1978). Total bilirubin in serum was estimated by the method of Roth, Clin. Chem. Acta., 17, 487-492 (1967).
(§2) Similar studies were conducted with neonatal rats treated subcutaneously with 2 and 10 micromoles per kilogram of Cr-protoporphyrin soon after birth. Various organs were analyzed for heme oxygenase activity and bilirubin concentration. The results were compared with controls each of which were treated subcutaneously with 0.1 ml of saline.
The results for heme oxygenase activity in liver, kidney and spleen in nanamoles heme oxygenase per milligram microsomal protein per hour are shown below.

serum bilirubin [2] = assay: serum bilirubin in neonatal rats treated with Cr-protoporphyrin
Procedure: as §1, §2

heme oxygenase [3] = assay: hepatic heme oxygenase activity in neonatal rats treated with Sn-protoporphyrin
Procedure: (§3) To determine the efficacy of Sn-protoporphyrin for controlling the rate of heme metabolism, neonatal rats were injected subcutaneously at birth, and at 12, 24, 48 and 72 hours postnatally with 0.1 ml solutions of Sn-protoporphyrin. To prepare the solutions for parenteral injection, the material was taken up in a small volume of 0.2N sodium hydroxide, adjusted to pH 7.4 with one normal hydrochloric acid and made up to final volume with 0.9% sodium chloride. The compositions as prepared and used contained sufficient Sn-protoporphyrin to provide about 100 μmol/Kg body weight in each 0.1 ml injection. Control neonates received an equivalent volume of saline at each time point. Groups of neonates (6-30 animals per group) were sacrificed at selected time intervals.
as §1

serum bilirubin [4] = assay: total serum bilirubin in neonatal rats treated with Sn-protoporphyrin; conditions: about 100 μmol/Kg s.c. per injection
Procedure: as §3, §1

heme oxygenase [5] = assay: heme oxygenase activity (bilirubin production) in liver and kidney microsomes of adult rats treated with Sn-protoporphyrin; conditions: 50 μmol/Kg s.c.
Procedure: Studies were carried out with adult rats treated with Sn-protoporphyrin to determine the effect on heme oxygenase activity and bilirubin production. Three rats weighing about 230 grams each were injected subcutaneously with 50 μmol/Kg of Sn-protoporphyrin in isotonic saline at pH 8. Three controls were similiary treated with isotonic saline. The rats were sacrificed sixteen hours after treatment. The microsomal protein of the separate livers and of the three combined kidneys was estimated and heme oxygenase activity determined according to the method of Maines and Kappas. This procedure measures the heme oxygenase activity by determining the amount of bilirubin produced. The concentration unit for bilirubin is nanamoles bilirubin formed per milligram protein per hour.

[6] = neonatal rats, about 100 μmol/Kg s.c. per injection

## C=CC1=C(C)c2cc3[n-]c(cc4[n-]c(cc5nc(cc1n2)C(C)=C5C=C)c(C)c4CCC(=O)[O-])c(CCC(=O)[O-])c3C.[Cr+3].[H+] [Cr-protoporphyrin]
Heme oxygenase [1]; 2 and 10 μmol/Kg s.c., liver, kidney, spleen
  effect on heme oxygenase: immediate decrease in heme oxygenase
Heme oxygenase [1]; kidney, 2 μmol/Kg s.c. soon after birth, day 2
  heme oxygenase activity: 0.36 nanamoles heme oxygenase per m
Heme oxygenase [1]; kidney, 2 μmol/Kg s.c. soon after birth, day 3
  heme oxygenase activity: 0.72 nanamoles heme oxygenase per m
Heme oxygenase [1]; kidney, 2 μmol/Kg s.c. soon after birth, day 5
  heme oxygenase activity: 0.94 nanamoles heme oxygenase per m
Heme oxygenase [1]; kidney, 2 μmol/Kg s.c. soon after birth, day 7
  heme oxygenase activity: 1.17 nanamoles heme oxygenase per m
Heme oxygenase [1]; kidney, 2 μmol/Kg s.c. soon after birth, day 10
  heme oxygenase activity: 1.67 nanamoles heme oxygenase per m
Heme oxygenase [1]; kidney, 2 μmol/Kg s.c. soon after birth, day 14
  heme oxygenase activity: 0.74 nanamoles heme oxygenase per m
Heme oxygenase [1]; kidney, 2 μmol/Kg s.c. soon after birth, day 21
  heme oxygenase activity: 0.61 nanamoles heme oxygenase per m
Heme oxygenase [1]; kidney, 2 μmol/Kg s.c. soon after birth, day 35
  heme oxygenase activity: 0.58 nanamoles heme oxygenase per m
Heme oxygenase [1]; kidney, 10 μmol/Kg s.c. soon after birth, day 2
  heme oxygenase activity: 0 nanamoles heme oxygenase per m
Heme oxygenase [1]; kidney, 10 μmol/Kg s.c. soon after birth, day 3
  heme oxygenase activity: 0.42 nanamoles heme oxygenase per m
Heme oxygenase [1]; kidney, 10 μmol/Kg s.c. soon after birth, day 5
  heme oxygenase activity: 0.59 nanamoles heme oxygenase per m
Heme oxygenase [1]; kidney, 10 μmol/Kg s.c. soon after birth, day 7
  heme oxygenase activity: 0.48 nanamoles heme oxygenase per m
Heme oxygenase [1]; kidney, 10 μmol/Kg s.c. soon after birth, day 10
  heme oxygenase activity: 0.34 nanamoles heme oxygenase per m
Heme oxygenase [1]; kidney, 10 μmol/Kg s.c. soon after birth, day 14
  heme oxygenase activity: 0.41 nanamoles heme oxygenase per m
Heme oxygenase [1]; kidney, 10 μmol/Kg s.c. soon after birth, day 21
  heme oxygenase activity: 0.16 nanamoles heme oxygenase per m
Heme oxygenase [1]; kidney, 10 μmol/Kg s.c. soon after birth, day 35
  heme oxygenase activity: 0.45 nanamoles heme oxygenase per m
Heme oxygenase [1]; liver, 2 μmol/Kg s.c. soon after birth, day 2
  heme oxygenase activity: 5.81 nanamoles heme oxygenase per m
Heme oxygenase [1]; liver, 2 μmol/Kg s.c. soon after birth, day 3
  heme oxygenase activity: 5.60 nanamoles heme oxygenase per m
Heme oxygenase [1]; liver, 2 μmol/Kg s.c. soon after birth, day 5
  heme oxygenase activity: 5.36 nanamoles heme oxygenase per m
Heme oxygenase [1]; liver, 2 μmol/Kg s.c. soon after birth, day 7
  heme oxygenase activity: 4.42 nanamoles heme oxygenase per m
Heme oxygenase [1]; liver, 2 μmol/Kg s.c. soon after birth, day 10
  heme oxygenase activity: 3.62 nanamoles heme oxygenase per m
Heme oxygenase [1]; liver, 2 μmol/Kg s.c. soon after birth, day 14
  heme oxygenase activity: 2.24 nanamoles heme oxygenase per m
Heme oxygenase [1]; liver, 2 μmol/Kg s.c. soon after birth, day 21
  heme oxygenase activity: 1.94 nanamoles heme oxygenase per m
Heme oxygenase [1]; liver, 2 μmol/Kg s.c. soon after birth, day 35
  heme oxygenase activity: 2.38 nanamoles heme oxygenase per m
Heme oxygenase [1]; liver, 10 μmol/Kg s.c. soon after birth, day 2
  heme oxygenase activity: 1.67 nanamoles heme oxygenase per m
Heme oxygenase [1]; liver, 10 μmol/Kg s.c. soon after birth, day 3
  heme oxygenase activity: 1.43 nanamoles heme oxygenase per m
Heme oxygenase [1]; liver, 10 μmol/Kg s.c. soon after birth, day 5
  heme oxygenase activity: 1.22 nanamoles heme oxygenase per m
Heme oxygenase [1]; liver, 10 μmol/Kg s.c. soon after birth, day 7
  heme oxygenase activity: 0.85 nanamoles heme oxygenase per m
Heme oxygenase [1]; liver, 10 μmol/Kg s.c. soon after birth, day 10
  heme oxygenase activity: 0.85 nanamoles heme oxygenase per m
Heme oxygenase [1]; liver, 10 μmol/Kg s.c. soon after birth, day 14
  heme oxygenase activity: 0.78 nanamoles heme oxygenase per m
Heme oxygenase [1]; liver, 10 μmol/Kg s.c. soon after birth, day 21
  heme oxygenase activity: 0.56 nanamoles heme oxygenase per m
Heme oxygenase [1]; liver, 10 μmol/Kg s.c. soon after birth, day 35
  heme oxygenase activity: 1.23 nanamoles heme oxygenase per m
Heme oxygenase [1]; spleen, 2 μmol/Kg s.c. soon after birth, day 2
  heme oxygenase activity: 7.33 nanamoles heme oxygenase per m
Heme oxygenase [1]; spleen, 2 μmol/Kg s.c. soon after birth, day 3
  heme oxygenase activity: 11.13 nanamoles heme oxygenase per m
Heme oxygenase [1]; spleen, 2 μmol/Kg s.c. soon after birth, day 5
  heme oxygenase activity: 15.13 nanamoles heme oxygenase per m
Heme oxygenase [1]; spleen, 2 μmol/Kg s.c. soon after birth, day 7
  heme oxygenase activity: 11.18 nanamoles heme oxygenase per m
Heme oxygenase [1]; spleen, 2 μmol/Kg s.c. soon after birth, day 10
  heme oxygenase activity: 13.87 nanamoles heme oxygenase per m
Heme oxygenase [1]; spleen, 2 μmol/Kg s.c. soon after birth, day 14
  heme oxygenase activity: 16.62 nanamoles heme oxygenase per m
Heme oxygenase [1]; spleen, 2 μmol/Kg s.c. soon after birth, day 21
  heme oxygenase activity: 10.28 nanamoles heme oxygenase per m
Heme oxygenase [1]; spleen, 2 μmol/Kg s.c. soon after birth, day 35
  heme oxygenase activity: 15.55 nanamoles heme oxygenase per m
Heme oxygenase [1]; spleen, 10 μmol/Kg s.c. soon after birth, day 2
  heme oxygenase activity: 3.97 nanamoles heme oxygenase per m
Heme oxygenase [1]; spleen, 10 μmol/Kg s.c. soon after birth, day 3
  heme oxygenase activity: 4.62 nanamoles heme oxygenase per m
Heme oxygenase [1]; spleen, 10 μmol/Kg s.c. soon after birth, day 5
  heme oxygenase activity: 2.76 nanamoles heme oxygenase per m
Heme oxygenase [1]; spleen, 10 μmol/Kg s.c. soon after birth, day 7
  heme oxygenase activity: 6.19 nanamoles heme oxygenase per m
Heme oxygenase [1]; spleen, 10 μmol/Kg s.c. soon after birth, day 10
  heme oxygenase activity: 9.53 nanamoles heme oxygenase per m
Heme oxygenase [1]; spleen, 10 μmol/Kg s.c. soon after birth, day 14
  heme oxygenase activity: 10.34 nanamoles heme oxygenase per m
Heme oxygenase [1]; spleen, 10 μmol/Kg s.c. soon after birth, day 21
  heme oxygenase activity: 8.06 nanamoles heme oxygenase per m
Heme oxygenase [1]; spleen, 10 μmol/Kg s.c. soon after birth, day 35
  heme oxygenase activity: 13.72 nanamoles heme oxygenase per m
Serum bilirubin [2]; 2 μmol/Kg s.c. soon after birth, day 2
  Serum Bilirubin: 0.39 milligrams per deciliter
Serum bilirubin [2]; 2 μmol/Kg s.c. soon after birth, day 3
  Serum Bilirubin: 0.33 milligrams per deciliter
Serum bilirubin [2]; 2 μmol/Kg s.c. soon after birth, day 5
  Serum Bilirubin: 0.28 milligrams per deciliter
Serum bilirubin [2]; 2 μmol/Kg s.c. soon after birth, day 7
  Serum Bilirubin: 0.32 milligrams per deciliter
Serum bilirubin [2]; 2 μmol/Kg s.c. soon after birth, day 10
  Serum Bilirubin: 0.33 milligrams per deciliter
Serum bilirubin [2]; 2 μmol/Kg s.c. soon after birth, day 14
  Serum Bilirubin: 0.40 milligrams per deciliter
Serum bilirubin [2]; 10 μmol/Kg s.c. soon after birth, day 2
  Serum Bilirubin: 0.43 milligrams per deciliter
Serum bilirubin [2]; 10 μmol/Kg s.c. soon after birth, day 3
  Serum Bilirubin: 0.33 milligrams per deciliter
Serum bilirubin [2]; 10 μmol/Kg s.c. soon after birth, day 5
  Serum Bilirubin: 0.24 milligrams per deciliter
Serum bilirubin [2]; 10 μmol/Kg s.c. soon after birth, day 7
  Serum Bilirubin: 0.30 milligrams per deciliter
Serum bilirubin [2]; 10 μmol/Kg s.c. soon after birth, day 10
  Serum Bilirubin: 0.33 milligrams per deciliter
Serum bilirubin [2]; 10 μmol/Kg s.c. soon after birth, day 14
  Serum Bilirubin: 0.28 milligrams per deciliter

## C=Cc1c2[n-]c(c1C)/C=c1\[n-]/c(c(C)c1C=C)=C\c1[n-]c(c(CCC(=O)O)c1C)C=c1[n-]/c(c(C)c1CCC(=O)O)=C\2.[Sn+4] [Sn-protoporphyrin, tin protoporphyrin IX]
Heme oxygenase [3]; decreasing rate of heme metabolism
  activity compared with Cr-protoporphyrin: more active
Heme oxygenase [3]; neonatal rats, about 100 μmol/Kg s.c. at birth and 12, 24, 48, 72 hours, six week study
  effect on normal postnatal increase in hepatic heme oxygenase activity: completely prevented the normal marked increase in hepatic heme oxygenase activity after birth
Heme oxygenase [3]; [6]
  day at which hepatic heme oxygenase activity attained normal control levels: ~42 days
  time hepatic heme oxygenase activity remained well below control levels: about three
Heme oxygenase [3]; neonatal rats, about 100 μmol/Kg s.c. per injection, 1 day
  hepatic heme oxygenase activity relative to controls: less than half the levels of the controls
Serum bilirubin [4]
  day until which low bilirubin concentration continued: fourth
Serum bilirubin [4]; 42 day study
  effect on serum bilirubin levels: immediate and significant lowering of serum bilirubin levels
Heme oxygenase [5]
  effect on bilirubin production and heme oxygenase activity: extremely effective
Heme oxygenase [5]; sacrificed sixteen hours after treatment, separate livers (Experiment 1-3 = individual rats)
  heme oxygenase activity (bilirubin produced), LIVER: 0.95 nanamoles bilirubin formed per and 1.53 nanamoles bilirubin formed per
Heme oxygenase [5]; sacrificed sixteen hours after treatment, three combined kidneys
  heme oxygenase activity (bilirubin produced), KIDNEY (COMBINED): 0.055 nanamoles bilirubin formed per
